Laboratory results from patent publication US20250144067A1, “PERSONALIZED STARVATION THERAPY FOR CANCER” (Faeth Therapeutics, Inc., priority 2021, published 2025).
Structures can show the parent of a compound that is named as a salt. Where two headings read alike, the source gives them in different places. Peptide text beside a SMILES is read from it.

Assays:
[1] = test system: NCI-H292 lung cancer cells; assay: FDA drug screening, complete media vs cholesterol-free media without statin (TABLE 1); assay type: cell-based, human
[2] = test system: NCI-H292 lung cancer cells; assay: FDA drug screening, complete media vs cholesterol-free media with simvastatin (TABLE 2); assay type: cell-based, human
[3] = Complete minus Cholesterol-free, greater than 0 enhanced anti-cancer activity, about 0 neutral, below 0 antagonists
[4] = NCI-H292 cells in cholesterol-free media without statin
[5] = NCI-H292 cells in complete media
[6] = NCI-H292 cells, cholesterol-free media with simvastatin 0.04 μM, FDA drug library screen (TABLE 2)
[7] = NCI-H292 cells, complete media, FDA drug library screen (TABLE 2)
[8] = complete media minus cholesterol-free media + simvastatin (0.04 μM), >0 enhanced anti-cancer activity, about 0 neutral, <0 antagonist
[9] = Complete minus Cholesterol-free, >0 enhanced anti-cancer activity, about 0 neutral, <0 antagonist
[10] = NCI-H292 cells, cholesterol-free media without statin
[11] = NCI-H292 cells, FDA drug library screen, cholesterol-free media with simvastatin 0.04 μM
[12] = NCI-H292 cells, FDA drug library screen, complete media
[13] = complete media vs cholesterol-free media + simvastatin (0.04 μM), >0 enhanced anti-cancer activity, about 0 neutral, <0 antagonist
[14] = complete media minus cholesterol-free media + simvastatin, >0 enhanced anti-cancer activity, about 0 neutral, <0 antagonist
[15] = NCI-H292 cells, cholesterol-free media with simvastatin 0.04 μM, cell growth value in FDA drug screen
[16] = NCI-H292 cells, complete media, cell growth value in FDA drug screen
[17] = NCI-H292 cells, cholesterol-free media without statin, FDA drug library screen
[18] = NCI-H292 cells, complete media, FDA drug library screen
[19] = complete vs cholesterol-free media, >0 enhanced anti-cancer activity, about 0 neutral, <0 antagonist
[20] = NCI-H292 cells, FDA library drug in cholesterol-free media with simvastatin 0.04 μM
[21] = NCI-H292 cells, FDA library drug in complete media
[22] = Complete minus Cholesterol-free, […]
[23] = NCI-H292 cells, drug in cholesterol-free media with simvastatin 0.04 μM
[24] = NCI-H292 cells, drug in complete media
[25] = Complete minus Cholesterol-free, greater than 0 enhanced anti-cancer activity, about 0 neutral, below 0 antagonist
[26] = NCI-H292 cells, FDA drug library screen, cholesterol-free media without statin

SMILES: CC1=NN(c2ccc(C)c(C)c2)C(=O)/C1=N\Nc1cccc(-c2cccc(C(=O)O)c2)c1O [Eltrombopag (Olamine)]
- Difference [1, 3]: −0.96
- Cholesterol-free [1, 4]: 1.745
- Complete [1, 5]: 0.7856
- Cholesterol-free media + simvastatin (0.04 μM) [2, 6]: 1.098
- Complete Media [2, 7]: 1.058
- Difference [2, 8]: −0.04

SMILES: CC1=NN(c2ccc(C)c(C)c2)C(=O)/C1=N\Nc1cccc(-c2cccc(C(=O)O)c2)c1O [Eltrombopag]
- Difference [1, 9]: −0.30
- Cholesterol-free [1, 10]: 1.47
- Cholesterol-free media + simvastatin (0.04 μM) [2, 11]: 1.011
- Complete Media [2, 12]: 0.868
- Difference [2, 13]: −0.14

SMILES: COc1cc2c(cc1Cc1cccc(Cl)c1F)c(=O)c(C(=O)O)cn2[C@H](CO)C(C)C [Elvitegravir]
- Difference [1, 3]: −0.83
- Cholesterol-free [1, 4]: 1.777
- Complete [1, 5]: 0.9448
- Cholesterol-free media + simvastatin (0.04 μM) [2, 11]: 1.032
- Complete Media [2, 12]: 1.435
- Difference [2, 14]: 0.40

SMILES: CCCCCCCCCCCC1=C(O)C(=O)C=C(O)C1=O [Embelin]
- Difference [1, 3]: −0.48
- Cholesterol-free [1, 4]: 1.567
- Complete [1, 5]: 1.082
- Cholesterol-free media + simvastatin (0.04 μM) [2, 6]: 0.8998
- Complete Media [2, 7]: 0.8298
- Difference [2, 8]: −0.07

SMILES: CCOCCn1c(N2CCCN(C)CC2)nc2ccccc21 [Emedastine]
- Difference [1, 9]: −0.27
- Cholesterol-free [1, 10]: 0.9896
- Complete ([1]; NCI-H292 cells, complete media): 0.7182
- Cholesterol-free media + simvastatin (0.04 μM) [2, 15]: 0.8891
- Complete Media [2, 16]: 0.9093
- Difference [2, 14]: 0.02

SMILES: CC[C@H]1CN2CCc3cc(OC)c(OC)cc3[C@@H]2C[C@@H]1C[C@H]1NCCc2cc(OC)c(OC)cc21 [Emetine (dihydrochloride hydrate)]
- Cholesterol-free [1]: 0.02305
- Complete [1]: 0.04288
- Difference [1]: 0.02
- Cholesterol-free media + simvastatin (0.04 μM) [2]: 0.05048
- Complete Media [2]: 0.03214
- Difference [2]: −0.02

SMILES: OC[C@H]1O[C@@H](c2ccc(Cl)c(Cc3ccc(O[C@H]4CCOC4)cc3)c2)[C@H](O)[C@@H](O)[C@@H]1O [Empagliflozin]
- Cholesterol-free [1, 17]: 0.7937
- Complete [1, 18]: 1.112
- Difference [1, 19]: 0.32
- Cholesterol-free media + simvastatin (0.04 μM) [2, 11]: 0.9749
- Complete Media [2, 12]: 0.8261
- Difference [2, 13]: −0.15

SMILES: Nc1nc(=O)n([C@@H]2CS[C@H](CO)O2)cc1F [Emtricitabine]
- Cholesterol-free [1, 17]: 0.9457
- Complete [1, 18]: 1.235
- Difference [1, 19]: 0.29
- Cholesterol-free media + simvastatin (0.04 μM) [2, 15]: 1.347
- Complete Media [2, 16]: 1.442
- Difference [2, 14]: 0.09

SMILES: C[C@H](N[C@@H](CCc1ccccc1)C(=O)O)C(=O)N1CCC[C@H]1C(=O)O.O.O [Enalaprilat (dihydrate)]
- Difference [1, 3]: −0.58
- Cholesterol-free [1, 4]: 1.525
- Complete [1, 5]: 0.949
- Cholesterol-free media + simvastatin (0.04 μM) [2, 20]: 1.635
- Complete Media [2, 21]: 1.051
- Difference [2, 13]: −0.58

SMILES: CC(C)(O)CNc1nc(Nc2ccnc(C(F)(F)F)c2)nc(-c2cccc(C(F)(F)F)n2)n1 [Enasidenib]
- Difference [1, 9]: −0.30
- Cholesterol-free [1, 10]: 1.312
- Complete ([1]; NCI-H292 cells, complete media): 1.013
- Cholesterol-free media + simvastatin (0.04 μM) [2, 15]: 0.8158
- Complete Media [2, 16]: 0.8552
- Difference [2, 14]: 0.04

SMILES: COC(=O)N[C@@H](C)CNc1nccc(-c2cn(C(C)C)nc2-c2cc(Cl)cc(NS(C)(=O)=O)c2F)n1 [Encorafenib]
- Difference [1, 9]: −0.19
- Cholesterol-free [1, 10]: 0.5021
- Complete ([1]; NCI-H292 cells, complete media): 0.3116
- Cholesterol-free media + simvastatin (0.04 μM) [2, 6]: 0.6063
- Complete Media [2, 7]: 0.5501
- Difference [2, 8]: −0.06

SMILES: CCn1cc(C(=O)O)c(=O)c2cc(F)c(N3CCNCC3)nc21 [Enoxacin (hydrate)]
- Difference [1, 3]: −0.49
- Cholesterol-free [1, 4]: 1.532
- Complete [1, 5]: 1.045
- Cholesterol-free media + simvastatin (0.04 μM) [2, 6]: 1.166
- Complete Media [2, 7]: 1.164
- Difference [2, 8]: 0.00

SMILES: O=S(=O)(O)c1ccc2[nH]c(-c3ccccc3)nc2c1 [Ensulizole]
- Difference [1, 22]: 0.07
- Cholesterol-free [1, 17]: 0.8614
- Complete [1, 18]: 0.9314
- Cholesterol-free media + simvastatin (0.04 μM) [2, 6]: 0.9021
- Complete Media [2, 7]: 0.8833
- Difference ([2]; complete media minus cholesterol-free media + simvastatin (0.04 μM), […]): −0.02

SMILES: CCN(CC)C(=O)/C(C#N)=C/c1cc(O)c(O)c([N+](=O)[O-])c1 [Entacapone]
- Cholesterol-free [1, 17]: 0.7629
- Complete [1, 18]: 0.9193
- Difference [1, 19]: 0.16
- Cholesterol-free media + simvastatin (0.04 μM) [2, 11]: 1.719
- Complete Media [2, 12]: 1.579
- Difference [2, 13]: −0.14

SMILES: C=C1[C@H](CO)[C@@H](O)C[C@@H]1n1cnc2c(=O)[nH]c(N)nc21 [Entecavir (monohydrate)]
- Difference [1, 3]: −0.52
- Cholesterol-free [1, 4]: 1.519
- Complete [1, 5]: 1
- Cholesterol-free media + simvastatin (0.04 μM) [2, 23]: 1.17
- Complete Media [2, 24]: 0.9716
- Difference [2, 13]: −0.20

SMILES: CN1CCN(c2ccc(C(=O)Nc3n[nH]c4ccc(Cc5cc(F)cc(F)c5)cc34)c(NC3CCOCC3)c2)CC1 [Entrectinib]
- Difference [1, 9]: −0.05
- Cholesterol-free [1, 17]: 0.4371
- Complete [1, 18]: 0.3827
- Cholesterol-free media + simvastatin (0.04 μM) [2, 15]: 0.2455
- Complete Media [2, 16]: 0.2696
- Difference [2, 14]: 0.02

SMILES: CNC(=O)c1ccc(N2C(=S)N(c3ccc(C#N)c(C(F)(F)F)c3)C(=O)C2(C)C)cc1F [Enzalutamide]
- Cholesterol-free [1, 17]: 0.885
- Complete [1, 18]: 1.326
- Difference [1, 19]: 0.44
- Cholesterol-free media + simvastatin (0.04 μM) [2, 20]: 0.7893
- Complete Media [2, 21]: 0.3116
- Difference [2, 13]: −0.48

SMILES: CC(/C=C1\SC(=S)N(CC(=O)O)C1=O)=C\c1ccccc1 [Epalrestat]
- Difference [1, 9]: −0.29
- Cholesterol-free [1, 10]: 1.235
- Complete ([1]; NCI-H292 cells, complete media): 0.9425
- Cholesterol-free media + simvastatin (0.04 μM) [2, 11]: 0.9966
- Complete Media [2, 12]: 0.8579
- Difference [2, 13]: −0.14

SMILES: CCc1ccc(C(=O)C(C)CN2CCCCC2)cc1 (stereo not shown) [Eperisone (Hydrochloride)]
- Difference [1, 25]: −0.09
- Cholesterol-free [1, 26]: 0.978
- Complete [1, 12]: 0.8889
- Cholesterol-free media + simvastatin (0.04 μM) [2, 11]: 1.323
- Complete Media [2, 12]: 1.222
- Difference [2, 13]: −0.10

SMILES: NC1=NCC2c3ccccc3Cc3ccccc3N12 (stereo not shown) [Epinastine (hydrochloride)]
- Cholesterol-free [1]: 1.415
- Complete [1]: 0.8806
- Difference [1]: −0.53
- Cholesterol-free media + simvastatin (0.04 μM) [2]: 1.515
- Complete Media [2]: 1.132
- Difference [2]: −0.38

SMILES: NC1=NCC2c3ccccc3Cc3ccccc3N12 (stereo not shown) [Epinastine]
- Cholesterol-free [1]: 0.9643
- Complete [1]: 0.9792
- Difference [1]: 0.01
- Cholesterol-free media + simvastatin (0.04 μM) [2]: 0.9831
- Complete Media [2]: 0.9656
- Difference [2]: −0.02

SMILES: COc1cccc2c1C(=O)c1c(O)c3c(c(O)c1C2=O)C[C@@](O)(C(=O)CO)C[C@@H]3O[C@H]1C[C@H](N)[C@@H](O)[C@H](C)O1 [Epirubicin (hydrochloride)]
- Difference [1, 9]: −0.01
- Cholesterol-free [1, 17]: −0.006463
- Complete [1, 18]: −0.01887
- Cholesterol-free media + simvastatin (0.04 μM) [2, 11]: 0.1295
- Complete Media [2, 12]: −0.004785
- Difference [2, 13]: −0.13

SMILES: COC(=O)[C@@H]1CC2=CC(=O)CC[C@]2(C)[C@@]23O[C@@H]2C[C@@]2(C)[C@@H](CC[C@@]24CCC(=O)O4)[C@H]13 [Eplerenone]
- Cholesterol-free [1, 17]: 1.018
- Complete [1, 18]: 1.291
- Difference [1, 19]: 0.27
- Cholesterol-free media + simvastatin (0.04 μM) [2, 23]: 1.039
- Complete Media [2, 24]: 0.8449
- Difference [2, 13]: −0.19

SMILES: CCOC(CN1CCN(CC(C)C(=O)c2ccccc2)CC1)c1ccccc1 (stereo not shown) [Eprazinone (dihydrochloride)]
- Difference [1, 25]: −0.09
- Cholesterol-free [1, 26]: 1.265
- Cholesterol-free media + simvastatin (0.04 μM) [2, 6]: 0.9386
- Complete Media [2, 7]: 0.9227
- Difference [2, 8]: −0.02

SMILES: CC(C)(C)NC(=O)[C@H]1CC[C@H]2[C@@H]3CC=C4C=C(C(=O)O)CC[C@]4(C)[C@H]3CC[C@]12C [Epristeride]
- Cholesterol-free [1, 17]: 0.5663
- Complete [1, 18]: 1.029
- Difference [1, 19]: 0.46
- Cholesterol-free media + simvastatin (0.04 μM) [2, 11]: 0.7018
- Complete Media [2, 12]: 0.8964
- Difference [2, 14]: 0.19

SMILES: N=C(N)NCCCC[C@@H]1NC(=O)CCSSC[C@@H](C(N)=O)NC(=O)[C@@H]2CCCN2C(=O)[C@H](Cc2c[nH]c3ccccc23)NC(=O)[C@H](CC(=O)O)NC(=O)CNC1=O [Eptifibatide] (HELM PEPTIDE1{[O=C(CCS[*:3])[*:2]].[N=C(N)NCCCC[C@H](N[*:1])C(=O)[*:2]].G.D.W.P.C.[am]}$PEPTIDE1,PEPTIDE1,1:R3-7:R3$$$V2.0)
- Difference [1, 22]: −1.01
- Cholesterol-free [1, 4]: 1.974
- Complete [1, 5]: 0.9607
- Cholesterol-free media + simvastatin (0.04 μM) [2, 11]: 0.8438
- Complete Media [2, 12]: 0.9929
- Difference ([2]; complete media minus cholesterol-free media + simvastatin, […]): 0.15
